Measured values taken from patent publication US11230535B2, “CFTR regulators and methods of use thereof” (THE REGENTS OF THE UNIVERSITY OF CALIFORNIA, priority 2015, dated 2022).
Entries after “also recorded” stand apart in the source; their conditions may differ.

Experiments:
[1] = tested on: rat liver microsomes; assay: In vitro metabolic stability in rat liver microsomes; format: in vitro ADME; details: NADPH
Description: In vitro metabolic stability. Compounds (each 5 μM) were incubated for specified times at 37° C. with rat liver microsomes (1 mg/ml; Sigma-Aldrich) in potassium phosphate buffer containing 1 mM NADPH, as described^14.

[2] = target: T1, human wild-type CFTR (Homo sapiens, UniProt P13569); assay: Cell-based plate reader (YFP iodide influx) assay of CFTR function; parameters: expressed in transfected cells; host or cells: Fischer rat thyroid (FRT) cells stably co-expressing YFP-H148Q
T1 sequence (P13569 whole entry): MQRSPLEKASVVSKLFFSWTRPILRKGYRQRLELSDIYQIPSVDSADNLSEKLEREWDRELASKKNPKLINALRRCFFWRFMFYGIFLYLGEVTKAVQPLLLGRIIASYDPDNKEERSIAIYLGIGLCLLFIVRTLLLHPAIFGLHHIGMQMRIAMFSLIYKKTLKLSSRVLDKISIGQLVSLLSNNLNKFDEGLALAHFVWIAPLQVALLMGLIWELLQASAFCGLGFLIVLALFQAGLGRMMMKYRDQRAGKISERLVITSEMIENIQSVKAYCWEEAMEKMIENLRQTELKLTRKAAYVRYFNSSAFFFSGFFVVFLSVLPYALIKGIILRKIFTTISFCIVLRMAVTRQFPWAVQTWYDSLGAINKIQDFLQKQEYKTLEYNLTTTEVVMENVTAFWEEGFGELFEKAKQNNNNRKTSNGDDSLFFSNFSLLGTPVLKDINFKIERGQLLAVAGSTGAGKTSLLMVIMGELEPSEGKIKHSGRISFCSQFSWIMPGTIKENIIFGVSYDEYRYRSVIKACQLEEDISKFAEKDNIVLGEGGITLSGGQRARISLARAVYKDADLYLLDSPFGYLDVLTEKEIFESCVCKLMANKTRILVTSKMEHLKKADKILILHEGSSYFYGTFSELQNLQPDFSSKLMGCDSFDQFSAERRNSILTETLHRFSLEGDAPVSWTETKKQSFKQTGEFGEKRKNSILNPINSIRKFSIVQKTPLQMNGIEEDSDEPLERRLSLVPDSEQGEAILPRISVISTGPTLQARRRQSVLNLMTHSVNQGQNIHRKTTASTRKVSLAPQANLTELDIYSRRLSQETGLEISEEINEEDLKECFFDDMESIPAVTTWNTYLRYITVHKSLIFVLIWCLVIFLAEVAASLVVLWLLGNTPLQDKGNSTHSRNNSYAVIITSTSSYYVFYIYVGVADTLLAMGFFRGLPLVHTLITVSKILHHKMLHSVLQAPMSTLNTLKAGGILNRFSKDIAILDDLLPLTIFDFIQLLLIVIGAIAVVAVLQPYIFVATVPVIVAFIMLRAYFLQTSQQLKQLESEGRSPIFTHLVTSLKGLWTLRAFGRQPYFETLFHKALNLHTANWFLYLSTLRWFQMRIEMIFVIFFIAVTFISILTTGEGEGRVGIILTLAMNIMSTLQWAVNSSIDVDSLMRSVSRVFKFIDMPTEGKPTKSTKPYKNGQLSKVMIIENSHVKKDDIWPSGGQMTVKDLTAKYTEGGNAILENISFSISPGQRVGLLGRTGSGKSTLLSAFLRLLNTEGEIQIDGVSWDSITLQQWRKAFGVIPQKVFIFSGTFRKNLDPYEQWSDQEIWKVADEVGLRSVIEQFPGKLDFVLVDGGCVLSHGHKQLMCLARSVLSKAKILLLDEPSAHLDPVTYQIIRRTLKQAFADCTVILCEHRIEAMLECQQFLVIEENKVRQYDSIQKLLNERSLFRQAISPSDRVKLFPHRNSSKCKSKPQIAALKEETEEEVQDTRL
In short: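 YFP-quenching assay: I⁻ influx is read for 2 s baseline and 12 s after rapid I⁻ addition. The initial influx rate, from exponential regression, is a linear measure of channel function. Plates carry DMSO vehicle and 20 μM forskolin controls.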

[3] = tested on: CaCC in HT-29 cells; assay: Non-TMEM16A CaCC plate reader assay in HT-29 cells expressing YFP; format: cell-based; details: 10 μM
Description: Platereader assays of chloride channel function. CFTR activity was assayed as described. FRT cells co-expressing YFP and wildtype CFTR were washed with phosphate-buffered saline (PBS) and then incubated for 10 min with test compounds in PBS containing 125 nM forskolin. I^− influx was measured in a plate reader with initial baseline read for 2 s and then for 12 s after rapid addition of an I^−-containing solution. TMEM16A activity was assayed similarly as described using FRT cells co-expressing YFP and TMEM16A. Activity of non-TMEM16A CaCC was assayed as described in HT-29 cells expressing YFP. In each assay initial rates of I^− influx were computed as a linear measure of channel function.

[4] = target: T1, human wild-type CFTR; assay: Short-circuit current in FRT cells expressing wild-type human CFTR; format: cell-based; parameters: expressed in transfected cells
Description: Short-circuit current was measured in FRT cells stably expressing wild-type human CFTR cultured on porous filters as described. The basolateral solution contained 130 mM NaCl, 2.7 mM KCl, 1.5 mM KH2PO4, 1 mM CaCl2, 0.5 mM MgCl2, 10 mM glucose, and 10 mM Na-HEPES (pH 7.3, 37° C.). In the apical solution 65 mM NaCl was replaced by Na gluconate, and CaCl2 was increased to 2 mM, and the basolateral membrane was permeabilized with 250 μg/ml amphotericin B. Short-circuit current was measured in freshly harvested adult mouse colon at 37° C. using symmetrical Krebs-bicarbonate buffer.
(§1) Fischer rat thyroid (FRT) cells stably expressing wild-type human CFTR were cultured on Snapwell inserts (Corning Costar, Corning N.Y., USA) for short-circuit current (Isc) measurements. After 6-9 days in culture, when the transepithelial resistance was >1000 Ω/cm^2, the inserts were mounted in an Ussing chamber system (World Precision Instruments, Sarasota, Fla., USA). The basolateral solution contained 130 mM NaCl, 2.7 mM KCl, 1.5 mM KH2PO4, 1 mM CaCl2, 0.5 mM MgCl2, 10 mM glucose, and 10 mM Na-HEPES (pH 7.3). In the apical bathing solution, 65 mM NaCl was replaced by Na gluconate, and CaCl2 was increased to 2 mM. Both solutions were bubbled with air and maintained at 37° C. The basolateral membrane was permeabilized with 250 μg/ml amphotericin B (26, 27). Hemichambers were connected to a DVC-1000 voltage clamp via Ag/AgCl electrodes and 3 M KCl agar bridges for Isc recording.
Short-circuit current measurement. Short-circuit current was measured in FRT cells stably expressing wild-type human CFTR cultured on porous filters as described. The basolateral solution contained 130 mM NaCl, 2.7 mM KCl, 1.5 mM KH2PO4, 1 mM CaCl2, 0.5 mM MgCl2, 10 mM glucose, and 10 mM Na-HEPES (pH 7.3, 37° C.). In the apical solution 65 mM NaCl was replaced by Na gluconate, and CaCl2 was increased to 2 mM, and the basolateral membrane was permeabilized with 250 μg/ml amphotericin B. Short-circuit current was measured in freshly harvested adult mouse colon at 37° C. using symmetrical Krebs-bicarbonate buffer.
as §1, with “Short-circuit current. Fischer” for “Fischer”
Short-circuit current measurement. Short-circuit current measurements were done as described. Briefly, Snapwell (Corning Costar, Corning, N.Y.) inserts containing CFTR-expressing FRT cells or human bronchial epithelial cells were mounted in Ussing chambers (Physiological Instruments, San Diego, Calif.). For FRT cells the hemichambers were filled with 5 ml of HCO3^−-buffered solution (basolateral) and half-Cl^− solution (apical), and the basolateral membrane was permeabilized with 250 μg/ml amphotericin B. Symmetrical HCO3^−-buffered solutions were used for human bronchial epithelial cells. Solutions were bubbled with 95% O2/5% CO2 and maintained at 37° C., and short-circuit current was measured on a DVC-1000 voltage clamp (World Precision Instruments Inc., Sarasota, Fla.) using Ag/AgCl electrodes and 3 M KCl agar bridges.

[5] = tested on: FRT cells; assay: Cytotoxicity by Alamar Blue assay in FRT cells; format: cell-based, rat; details: for cytotoxicity of 6k / 12: 10 μM, 8 h; for cytotoxicity at up to 100 μM: 1 or 24 h
[6] = FRT cells expressing human wild-type CFTR
[7] = FRT cells expressing human wild-type CFTR, read-out: EC50 for CFTR activation (short-circuit current)

| SMILES | metabolic stability in hepatic microsomes, in words [1] | effect on calcium-activated chloride channels in HT-29 cells [3] | CFTR activation (short-circuit current), in words [4, 6] | EC50 [4, 7] [nM] | cytotoxicity of 6k / 12 [5] | cytotoxicity at up to 100 μM [5] | other results |
| --- | --- | --- | --- | --- | --- | --- | --- |
| CCN(CC)c1nc(Nc2ccc3ncsc3c2)nc(OC(C(F)(F)F)C(F)(F)F)n1 [6k, N′-(1,3-Benzothiazol-6-yl)-N,N-diethyl-6-[(1,1,1,3,3,3-hexafluoropropan-2-yl)oxy]-1,3,5-triazine-2,4-diamine] | metabolized slowly; also recorded: substantially greater in vitro metabolic stability than 1 or 12 | no activation; also recorded: neither inhibited nor activated | full CFTR activation | 30 | did not produce significant toxicity | – | original compound remaining at 60 min ([1]; 5 μM, rat hepatic microsomes): ~60%; EC50 [2]: ~50 nM; fold increase in potency over benzoxazole 6j [2]: ~3 fold; EC50 ([2]; bicyclic aniline analogs, read-out: EC50): 50 nM |
| Nc1ccc([N+](=O)[O-])cc1-c1nc2ccccc2n(Cc2ccccc2)c1=O [CFTRact-J027, 3-(2-amino-5-nitrophenyl)-1-benzylquinoxalin-2(1H)-one] | – | – | fully activated CFTR chloride conductance | – | – | no appreciable in vitro cytotoxicity | activation of CFTR at 3 μM ([4]; 3 μM, wild-type CFTR, FRT cells): nearly full activation; cytotoxicity at 20 μM ([5]; 20 μM): did not show cytotoxicity; cytotoxicity at 25 μM ([5]; 25 μM): did not show significant in vitro cytotoxicity; non-cytotoxic concentration relative to EC50 for CFTR activation ([5]; 25 μM): > 100 fold |
| CCN(CC)c1nc(Nc2ccccc2)nc(OC(C(F)(F)F)C(F)(F)F)n1 [CFTRact-K089, N,N-Diethyl-6-[(1,1,1,3,3,3-hexafluoropropan-2-yl)oxy]-N′-phenyl-1,3,5-triazine-2,4-diamine] | metabolized rapidly | – | fully activated CFTR | ~250 | – | no appreciable in vitro cytotoxicity | EC50 ([2]; N,N-diethyl-N′-aryl-1,3,5-triazine diamine analogs, read-out: EC50 for CFTR activation): 240 nM; % Activation ([2]; commercial analogs, FRT cells with YFP and wildtype CFTR, 125 nM forskolin): 111%; EC50 ([2]; commercial analogs, read-out: EC50 (full-dose response assay, compounds >80% activation)): 250 nM; CFTR activation, Vmax ([4]; 100% = 20 μM forskolin): ~50 % Vmax |
| CC(C)(C)c1cc(C(C)(C)C)c(NC(=O)c2c[nH]c3ccccc3c2=O)cc1O [VX-770, reference compound] | – | – | relatively little activity; also recorded: relatively weak activity | – | – | – | – |
| CNc1nc(Nc2ccccc2)nc(OCC(F)(F)C(F)F)n1 [compound 12, N-methyl-N′-phenyl-6-(2,2,3,3-tetrafluoropropoxy)-1,3,5-triazine-2,4-diamine] | rapidly metabolized by hepatic microsomes | no activation; also recorded: neither inhibited nor activated | fully activated CFTR chloride conductance; also recorded: full CFTR activation | 31 | non-toxic; also recorded: did not produce significant toxicity | – | fold better EC50 than diethylamine analog 6a [2]: ~50 fold; fold more potent than hexafluoropropanol analog 11 [2]: ~3 fold; EC50 ([2]; N-methyl-N′-phenyl-1,3,5-triazine diamine analogs, read-out: EC50): 40 nM; EC50 [4]: ~30 nM |
